Source: US20230286958A1, “PLASMA KALLIKREIN INHIBITORS” (Merck Sharp & Dohme LLC, priority 2020, published 2023)

Tests used:
Human plasma kallikrein = Human plasma kallikrein (Homo sapiens (Human), UniProt P03952); assay: Kallikrein Assay (fluorogenic substrate Acetyl-K-P-R-AFC); type: biochemical; conditions: Plasma Kallikrein (PKal)
Outline: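 Ki is derived from IC50 with the Cheng-Prusoff equation, and IC50 from the inflection point of a four-parameter logistic curve. The rate of AFC release is read with 0.5 nM purified enzyme and […] substrate at room temperature or 37 °C.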

human Factor XIa = human Factor XIa (Homo sapiens (Human), UniProt P03951); assay: Factor XIa Assay (fluorogenic substrate GPR-AFC); type: biochemical; conditions: Factor XIa (FXIa)
Sequence of human Factor XIa (P03951 388-625 limits assumed): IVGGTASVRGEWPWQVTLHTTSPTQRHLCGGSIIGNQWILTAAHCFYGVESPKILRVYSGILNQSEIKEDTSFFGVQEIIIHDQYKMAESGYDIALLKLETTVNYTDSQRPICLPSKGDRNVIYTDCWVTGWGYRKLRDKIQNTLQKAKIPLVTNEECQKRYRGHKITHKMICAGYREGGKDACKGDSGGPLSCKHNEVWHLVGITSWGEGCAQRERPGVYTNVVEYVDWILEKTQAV
Sequence of human Factor XIa (P03951 19-387 partner limits assumed): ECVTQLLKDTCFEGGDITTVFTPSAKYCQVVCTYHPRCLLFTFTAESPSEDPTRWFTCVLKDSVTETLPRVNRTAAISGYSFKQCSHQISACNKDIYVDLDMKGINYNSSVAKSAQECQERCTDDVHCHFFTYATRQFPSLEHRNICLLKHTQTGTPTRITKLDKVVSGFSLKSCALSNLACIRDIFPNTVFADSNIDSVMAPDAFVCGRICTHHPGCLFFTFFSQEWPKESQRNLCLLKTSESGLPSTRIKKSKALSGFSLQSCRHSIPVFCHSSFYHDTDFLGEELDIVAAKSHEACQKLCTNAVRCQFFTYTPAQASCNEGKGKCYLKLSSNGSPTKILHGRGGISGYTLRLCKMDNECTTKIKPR

Sequence of Human plasma kallikrein (P03952 391-638): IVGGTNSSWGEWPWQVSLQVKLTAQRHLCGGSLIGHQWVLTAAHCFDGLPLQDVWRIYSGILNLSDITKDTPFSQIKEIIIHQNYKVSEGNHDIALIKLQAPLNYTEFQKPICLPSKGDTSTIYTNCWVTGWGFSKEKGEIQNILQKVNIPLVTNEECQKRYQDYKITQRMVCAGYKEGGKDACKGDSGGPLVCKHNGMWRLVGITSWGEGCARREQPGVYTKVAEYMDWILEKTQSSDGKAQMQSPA
Sequence of Human plasma kallikrein (P03952 20-390 partner): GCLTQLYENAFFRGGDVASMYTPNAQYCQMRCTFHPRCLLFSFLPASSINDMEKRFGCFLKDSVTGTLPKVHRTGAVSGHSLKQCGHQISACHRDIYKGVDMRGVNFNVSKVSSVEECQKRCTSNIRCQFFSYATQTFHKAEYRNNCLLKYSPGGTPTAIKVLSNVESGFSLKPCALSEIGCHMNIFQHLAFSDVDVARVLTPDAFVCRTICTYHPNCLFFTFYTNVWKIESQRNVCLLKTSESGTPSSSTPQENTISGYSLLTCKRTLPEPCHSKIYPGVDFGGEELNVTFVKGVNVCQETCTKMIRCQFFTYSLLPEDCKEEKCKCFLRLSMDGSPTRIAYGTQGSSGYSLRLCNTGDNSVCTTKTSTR

| SMILES | IC50 (Human plasma kallikrein) [nM] | IC50 (human Factor XIa) [nM] |
| --- | --- | --- |
| CC(c1cnc(N2Cc3ncccc3C2=O)nc1)n1cc(NC(=O)c2cncc(-c3c(C(F)F)ccc(Cl)c3F)n2)cn1 (racemic) [Example 27, (S and R)-6-(3-Chloro-6-(difluoromethyl)-2-fluorophenyl)-N(1-(1-(2-(5-oxo-5,7-dihydro-6H-pyrrolo[3,4-b]pyridin-6-yl)pyrimidin-5-yl)ethyl)-1H-pyrazol-4-yl)pyrazine-2-carboxamide] | 14.8 | 5650 |
| CC(c1cnc(N2CC3CC3C2=O)nc1)n1cc(NC(=O)c2cncc(-c3c(OC(F)F)ccc(Cl)c3F)n2)cn1 (single isomer, unassigned) [Example 71, 6-(3-Chloro-6-(difluoromethoxy)-2-fluorophenyl)-N-(1-((S or R)-1-(2-((1R,5S or 1S,5R)-2-oxo-3-azabicyclo[3.1.0]hexan-3-yl)pyrimidin-5-yl)ethyl)-1H-pyrazol-4-yl)pyrazine-2-carboxamide] | 39 | 4300 |
| Cc1nc(C(C)n2cc(NC(=O)c3nc(-c4c(C(F)F)ccc(Cl)c4F)cnc3CO)cn2)cnc1N1C[C@H]2C[C@H]2C1=O (single isomer, unassigned) [Example 197, 6-(3-Chloro-6-(difluoromethyl)-2-fluorophenyl)-3-(hydroxymethyl)-N-(1-((S or R)-1-(6-methyl-5-((1R,5S)-2-oxo-3-azabicyclo[3.1.0]hexan-3-yl)pyrazin-2-yl)ethyl)-1H-pyrazol-4-yl)pyrazine-2-carboxamide] | 0.2 | 48 |
| Cc1cc(C(C)n2cc(NC(=O)c3cc(-c4c(C(F)F)ccc(Cl)c4F)c[n+]([O-])c3)cn2)cnc1N1C[C@H]2C[C@H]2C1=O (single isomer, unassigned) [Example 107, 5-(3-Chloro-6-(difluoromethyl)-2-fluorophenyl)-N-(1-((R or S)-1-(5-methyl-6-((1R,5S)-2-oxo-3-azabicyclo[3.1.0]hexan-3-yl)pyridin-3-yl)ethyl)-1H-pyrazol-4-yl)-1-(l1-oxidanyl)-114-pyridine-3-carboxamide] | 1.5 | 260 |
| Cc1nc(N2C[C@H]3C[C@H]3C2=O)ncc1[C@@H](CO)n1cc(NC(=O)c2cncc(-c3c(C(F)F)ccc(Cl)c3F)n2)cn1 [Example 159, 6-(3-Chloro-6-(difluoromethyl)-2-fluorophenyl)-N-(1-((S)-2-hydroxy-1-(4-methyl-2-((1R,5S)-2-oxo-3-azabicyclo[3.1.0]hexan-3-yl)pyrimidin-5-yl)ethyl)-177-pyrazol-4-yl)pyrazine-2-carboxamide] | 11.2 | 6900 |
| CC(c1cnc(N2C[C@H]3C[C@H]3C2=O)c(C(F)F)c1)n1cc(NC(=O)c2cncc(-c3c(C(F)F)ccc(Cl)c3F)n2)cn1 (single isomer, unassigned) [Example 78, 6-(3-Chloro-6-(difluoromethyl)-2-fluorophenyl)-N-(1-((R or S)-1-(5-(difluoromethyl)-6-((1R,5S)-2-oxo-3-azabicyclo[3.1.0]hexan-3-yl)pyridin-3-yl)ethyl)-1H-pyrazol-4-yl)pyrazine-2-carboxamide] | 2.7 | > 10000 |
| O=C(Nc1cnn(Cc2cnc(N3C[C@H]4C[C@H]4C3=O)c(Cl)c2)c1)c1cncc(-c2c(C(F)F)ccc(Cl)c2F)n1 [Example 8, N-(1-((5-Chloro-6-((1R,5S)-2-oxo-3-azabicyclo[3.1.0]hexan-3-yl)pyridin-3-yl)methyl)-1H-pyrazol-4-yl)-6-(3-chloro-6-(difluoromethyl)-2-fluorophenyl)pyrazine-2-carboxamide] | 11.9 | > 10000 |
| CCc1nc(C(C)n2cc(NC(=O)c3cncc(-c4c(C(F)F)ccc(Cl)c4F)n3)cn2)cnc1N1C[C@H]2C[C@H]2C1=O (single isomer, unassigned) [Example 55, 6-(3-Chloro-6-(difluoromethyl)-2-fluorophenyl)-N-(1-((S or R)-1-(6-ethyl-5-((1R,5S)-2-oxo-3-azabicyclo[3.1.0]hexan-3-yl)pyrazin-2-yl)ethyl)-1H-pyrazol-4-yl)pyrazine-2-carboxamide] | 5.8 | 5360 |
